Experimental data from patent US8129396B2, “2-[1H-benzimidazol-2(3H)-ylidene]-2-(pyrimidin-2-yl)acetamides and 2-[benzothiazol-2(3H)-ylidene]-2-(pyrimidin-2-yl)acetamides as kinase inhibitors” (Telik, Inc., priority 2008, dated 2012).

Assays:
Aurora A kinase = target: T1, Aurora A kinase (Homo sapiens, UniProt O14965); assay: Aurora A kinase assay (IMAP fluorescence polarization); type: biochemical; details: 10 μM ATP; rounded to 1 significant figure; read-out: Aur-A IC50
T1 construct: purchased Upstate Biotech
T1 sequence (O14965 1-403): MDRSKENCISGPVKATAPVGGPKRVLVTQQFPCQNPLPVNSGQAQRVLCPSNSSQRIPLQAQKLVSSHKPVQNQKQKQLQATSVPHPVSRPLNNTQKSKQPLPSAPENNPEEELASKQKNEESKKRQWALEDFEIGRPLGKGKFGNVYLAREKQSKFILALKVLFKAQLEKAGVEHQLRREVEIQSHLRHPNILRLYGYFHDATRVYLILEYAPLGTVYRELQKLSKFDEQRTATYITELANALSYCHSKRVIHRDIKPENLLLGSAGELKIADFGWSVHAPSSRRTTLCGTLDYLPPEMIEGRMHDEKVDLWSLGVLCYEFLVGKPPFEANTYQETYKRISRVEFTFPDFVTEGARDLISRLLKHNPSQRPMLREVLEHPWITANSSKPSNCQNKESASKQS
Text: (§1) The cell lines HL60 (human promyelocytic leukemia) and HCT116 (human colon carcinoma) were obtained from the American Type Culture Collection, Manassas, Va., U.S.A., and HUVEC-2 (human umbilical vein endothelial cells) from BD Biosciences, Bedford, Mass., U.S.A. Aurora A kinase was obtained from Upstate Biotech, Billerica, Mass., U.S.A.; Aurora B kinase from BPS Bioscience, San Diego, Calif., U.S.A.; and VEGFR2 kinase from Cell Signaling Technology, Danvers, Mass., U.S.A. The IMAP FP Screening Express kit was obtained from Molecular Devices, Sunnyvale, Calif., U.S.A.; the CellTiter-Glo assay kit from Promega Corporation, Madison, Wis., U.S.A.; and the Cellular DNA Cytometric Analysis Reagent Kit and BrdU labeling and detection kit from Roche Diagnostics Corporation, Indianapolis, Ind., U.S.A. All products were used in accordance with manufacturer's directions. Kinase inhibition assays and the histone phosphorylation (p-H3) assay were conducted in duplicate, and the cytotoxicity and HUVEC proliferation assays were conducted in triplicate, in each case with solvent control.
Aurora A kinase assay: the test compounds were diluted in dimethylsulfoxide (DMSO, eight concentrations with serial 3-fold dilutions) and incubated (final DMSO concentration 2.5%) with Aurora A kinase at room temperature for 5 min in kinase reaction buffer with 1 mM dithiothreitol (IMAP FP Screening Express). The kinase reaction was initiated by adding 100 nM fluorescein labeled PKAtide and 10 μM adenosine triphosphate (ATP), and allowed to continue for 45 min at room temperature, after which it was stopped by adding binding reagent (1:400 dilution in binding buffer A). After 30 min of room temperature incubation with shaking, the fluorescence polarization was measured on a LJL plate reader. Aurora B kinase assay: performed as for the Aurora A kinase assay, but using Aurora B kinase instead of Aurora A kinase.

Aurora B kinase = target: T2, Aurora B kinase (Homo sapiens, UniProt Q96GD4); assay: Aurora B kinase assay (IMAP fluorescence polarization); type: biochemical; details: 10 μM ATP; rounded to 1 significant figure; read-out: Aur-B IC50
T2 construct: purchased BPS Bioscience
Text: as §1
The kinase reaction was initiated by adding 100 nM fluorescein labeled PKAtide and 10 μM adenosine triphosphate (ATP), and allowed to continue for 45 min at room temperature, after which it was stopped by adding binding reagent (1:400 dilution in binding buffer A). After 30 min of room temperature incubation with shaking, the fluorescence polarization was measured on a LJL plate reader. Aurora B kinase assay: performed as for the Aurora A kinase assay, but using Aurora B kinase instead of Aurora A kinase.

VEGFR2 kinase = target: T3, VEGFR2 kinase (Homo sapiens, UniProt P35968); assay: VEGFR2 kinase assay; type: biochemical; details: 6 μM ATP, 1 mM MnCl2; rounded to 1 significant figure
T3 construct: purchased Cell Signaling Technology
Text: as §1
This assay was performed as for the Aurora A kinase assay, using VEGFR2 kinase, CSKtide as the substrate with 6 μM ATP and 1 mM MnCl2, a kinase reaction time of 1 hr, and dilution of the binding reagent 1:1200 in binding buffer A/binding buffer B (1:1).

p-H3 in HCT116 cells = assay: Histone phosphorylation (p-H3) assay; type: cell-based; details: Homo sapiens, HCT-116; HCT116 cells, 4 hr incubation; read-out: p-H3 IC50
Text: as §1
Log phase HCT116 cells were seeded at 2.5×10^4 cells/well in a 96-well plate and allowed to attach overnight. The test compounds were diluted in DMSO (8 concentrations with serial 3-fold dilutions) and added to the cells (0.5% DMSO final concentration), and the cells incubated for 4 hr. The cells were then washed three times with cold phosphate-buffered saline (PBS), and lysis buffer was added. After 30 min shaking at 4° C. and centrifugation, the supernatants were transferred to a nitrocellulose membrane by a “dot-blot” apparatus. After washing the wells, the membrane was processed for Western blot. Detection of p-H3 and β-actin was performed on the same membrane with primary rabbit anti-p-H3 and mouse anti-β-actin antibodies followed by secondary goat anti-rabbit IRDye800 and goat anti-mouse AlexaFluor 680 antibodies. The membranes were scanned on an Odyssey scanner.

[1] = system: HCT116 (human colon carcinoma) cells; assay: HCT116 cytotoxicity assay (CellTiter-Glo); type: cell-based; details: HCT-116, 72 h, cytotoxicity, three days culture, read-out: HCT116 IC50
Text: as §1
Log-phase cells were trypsinized, collected by centrifugation, and resuspended in a small volume of fresh medium, and the density of viable cells was determined following Trypan Blue staining. Cells were diluted in fresh media (1×10^4 cells/mL for HL60 and 4×10^4 cells/mL for HCT116 cells), the test compounds (concentrations between 0.1 μM and 200 μM, dissolved in DMSO, 50 μL) added immediately after dilution to achieve a final DMSO concentration of 0.5%, then the suspensions added at 150 μL/well to 96-well plates, and incubated overnight to allow attachment in the case of adherent cells. The cells were cultured for three days (about three doubling times). The cells were then collected by centrifugation, and 100 μL of the culture supernatant was replaced by the CellTiter-Glo reagent. After incubation for 15 minutes at room temperature, the plate was read with a luminometer.

[2] = system: HUVEC-2 (human umbilical vein endothelial cells); assay: HUVEC VEGF-dependent proliferation assay (BrdU); type: cell-based; details: VEGF (25 ng/mL)-dependent proliferation, read-out: HUVEC IC50
Text: as §1
HUVEC-2 cells were seeded at 10^4 cells/well in a 96-well plate coated with 0.1% gelatin in complete medium. […] The compounds were serially diluted in DMSO, and added to the cells at 0.5% DMSO final concentration. After 2 hr, VEGF (25 ng/mL) was added; and after a further day, 5-bromo-2-deoxyuridine (BrdU, 10 μM) was added to label proliferating cells, and the cells incubated for another day. The plates were then processed using the Roche BrdU labeling and detection kit, and the VEGF-dependent antiproliferative activity of the compounds determined.

T2 sequence (Q96GD4 whole entry): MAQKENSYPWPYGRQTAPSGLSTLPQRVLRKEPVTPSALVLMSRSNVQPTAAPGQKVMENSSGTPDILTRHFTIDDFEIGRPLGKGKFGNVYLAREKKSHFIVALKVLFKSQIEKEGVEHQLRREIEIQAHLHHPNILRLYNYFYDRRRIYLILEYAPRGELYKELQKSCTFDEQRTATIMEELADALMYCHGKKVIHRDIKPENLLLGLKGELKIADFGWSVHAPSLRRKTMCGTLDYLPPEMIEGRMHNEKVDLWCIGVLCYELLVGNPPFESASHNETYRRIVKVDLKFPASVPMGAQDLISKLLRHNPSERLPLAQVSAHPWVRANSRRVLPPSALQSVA
T3 sequence (P35968 20-1356): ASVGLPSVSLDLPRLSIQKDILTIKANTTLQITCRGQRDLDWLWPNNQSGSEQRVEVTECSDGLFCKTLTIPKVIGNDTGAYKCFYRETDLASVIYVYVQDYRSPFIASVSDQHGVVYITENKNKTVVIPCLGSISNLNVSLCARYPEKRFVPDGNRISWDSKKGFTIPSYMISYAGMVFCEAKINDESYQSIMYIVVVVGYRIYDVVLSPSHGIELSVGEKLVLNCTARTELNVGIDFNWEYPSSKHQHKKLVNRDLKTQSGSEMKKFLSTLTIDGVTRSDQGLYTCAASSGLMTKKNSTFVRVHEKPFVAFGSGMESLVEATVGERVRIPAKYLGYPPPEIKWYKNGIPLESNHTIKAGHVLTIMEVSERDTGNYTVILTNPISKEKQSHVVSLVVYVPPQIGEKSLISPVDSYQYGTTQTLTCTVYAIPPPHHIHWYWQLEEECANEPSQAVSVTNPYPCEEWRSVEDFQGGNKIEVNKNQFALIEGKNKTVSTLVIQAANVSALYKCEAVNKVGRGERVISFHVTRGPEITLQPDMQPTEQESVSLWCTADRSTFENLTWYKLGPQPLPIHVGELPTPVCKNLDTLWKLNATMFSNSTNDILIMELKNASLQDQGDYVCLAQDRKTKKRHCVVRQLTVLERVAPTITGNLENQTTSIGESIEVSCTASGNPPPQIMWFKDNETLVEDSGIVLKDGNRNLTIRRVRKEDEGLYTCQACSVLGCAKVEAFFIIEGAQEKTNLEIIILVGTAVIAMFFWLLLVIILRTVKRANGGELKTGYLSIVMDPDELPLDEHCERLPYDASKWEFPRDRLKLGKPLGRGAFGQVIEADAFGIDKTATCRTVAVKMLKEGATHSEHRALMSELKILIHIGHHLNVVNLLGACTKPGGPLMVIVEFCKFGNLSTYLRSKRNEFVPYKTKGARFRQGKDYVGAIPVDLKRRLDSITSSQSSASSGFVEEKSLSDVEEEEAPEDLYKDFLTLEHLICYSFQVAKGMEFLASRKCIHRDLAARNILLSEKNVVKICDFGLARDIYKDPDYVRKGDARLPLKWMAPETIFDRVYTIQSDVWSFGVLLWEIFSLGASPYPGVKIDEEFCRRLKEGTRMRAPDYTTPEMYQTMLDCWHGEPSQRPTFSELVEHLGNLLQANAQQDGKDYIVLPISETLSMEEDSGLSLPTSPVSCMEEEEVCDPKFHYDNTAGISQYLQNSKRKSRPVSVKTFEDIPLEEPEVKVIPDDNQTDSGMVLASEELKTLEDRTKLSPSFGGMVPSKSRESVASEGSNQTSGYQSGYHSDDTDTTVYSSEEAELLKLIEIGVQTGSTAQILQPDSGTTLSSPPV

SMILES | IC50 (Aurora A kinase) | IC50 (Aurora B kinase) | IC50 (VEGFR2 kinase) | IC50 (p-H3 in HCT116 cells) | IC50 [1] | IC50 [2]
COc1ccnc(/C(C(N)=O)=C2/Nc3ccccc3S2)n1 [Compound 16A] | 100 nM | 20 nM | 300 nM | 2000 nM | 2000 nM | 2000 nM
NC(=O)/C(=C1\Nc2ccc(C(=O)O)cc2N1)c1nccc(C(F)(F)F)n1 [Compound 28A] | 5 nM | 5 nM | 10 nM | 4000 nM | 4000 nM | 40 nM
NC(=O)/C(=C1\Nc2ccc(C(=O)Nc3ccncc3)cc2N1)c1nccc(C(F)(F)F)n1 [Compound 44A] | 10 nM | 10 nM | 10 nM | 200 nM | 200 nM | 80 nM
NC(=O)/C(=C1\Nc2cc(F)c(C(=O)NCCCN3CCOCC3)cc2S1)c1nccc(C(F)(F)F)n1 [Compound 50A] | 20 nM | 10 nM | 20 nM | 400 nM | 300 nM | 90 nM
CCN1CCN(CCCNC(=O)c2ccc3c(c2)N/C(=C(/C(N)=O)c2nccc(C(F)(F)F)n2)N3)CC1 [Compound 55A] | 20 nM | 20 nM | 20 nM | 700 nM | 300 nM | 50 nM
CCN1CCN(CCCNC(=O)c2ccc3c(c2)S/C(=C(/C(N)=O)c2nccc(C(F)(F)F)n2)N3)CC1 [Compound 56A] | 20 nM | 20 nM | 20 nM | 700 nM | 40 nM | 40 nM
CN1CCN(CCNC(=O)c2ccc3c(c2)S/C(=C(/C(N)=O)c2nccc(C(F)(F)F)n2)N3)CC1 [Compound 57A] | 20 nM | 20 nM | 10 nM | 100 nM | 100 nM | 20 nM
CN1CCN(C(=O)c2ccc3c(c2)N/C(=C(/C(N)=O)c2nccc(C(F)(F)F)n2)N3)CC1 [Compound 58A] | 9 nM | 5 nM | 9 nM | 500 nM | 400 nM | 60 nM
CN1CCN(C(=O)c2ccc3c(c2)S/C(=C(/C(N)=O)c2nccc(C(F)(F)F)n2)N3)CC1 [Compound 59A] | 8 nM | 20 nM | 6 nM | 90 nM | 400 nM | 50 nM
CN(C)CCCNC(=O)c1ccc2c(c1)N/C(=C(/C(N)=O)c1nccc(C(F)(F)F)n1)N2 [Compound 62A] | 70 nM | 10 nM | 6 nM | 400 nM | 60 nM | 60 nM
NCCNC(=O)c1ccc2c(c1)S/C(=C(/C(N)=O)c1nccc(C(F)(F)F)n1)N2 [Compound 63A] | 30 nM | 30 nM | 5 nM | 400 nM | 200 nM | 60 nM
NC(=O)/C(=C1\Nc2ccc(C(=O)N3CCC(N)CC3)cc2N1)c1nccc(C(F)(F)F)n1 [Compound 66A] | 20 nM | 10 nM | 2 nM | 200 nM | 200 nM | 50 nM

More lines, main results first:

IC50 (Aurora A kinase) | IC50 (Aurora B kinase) | IC50 (VEGFR2 kinase) | IC50 (p-H3 in HCT116 cells) | SMILES | IC50 [1] | IC50 [2]
50 nM | 5 nM | 80 nM | 200 nM | NCC(=O)Nc1ccc2c(c1)SC(=C(C(N)=O)c1nccc(C(F)(F)F)n1)N2 (single isomer, unassigned) [Compound 76A, 2-{6-[(2-aminoacetyl)-amino]benzothiazol-2(3H)-ylidene}-2-(4-trifluoromethylpyrimidin-2-yl)acetamide] | 700 nM | 100 nM
100 nM | 9 nM | 20 nM | 300 nM | CN1CCN(C(=O)c2cnc(C(C(N)=O)=C3Nc4ccccc4S3)nc2C(F)(F)F)CC1 (single isomer, unassigned) [Compound 130A, 2-[benzothiazol-2(3H)-ylidene]-2-[5-(4-methylpiperazine-1-carbonyl)-4-trifluoromethylpyrimidin-2-yl]acetamide] | 2000 nM | 400 nM
10 nM | 40 nM | 4 nM | 40 nM | NC(=O)/C(=C1\Nc2ccc(C(=O)N3CCC(N)CC3)cc2S1)c1nccc(C(F)(F)F)n1 [Compound 67A] | 200 nM | 20 nM
10 nM | 10 nM | 3 nM | 60 nM | NC(=O)/C(=C1\Nc2ccc(C(=O)N3CC[C@@H](N)C3)cc2N1)c1nccc(C(F)(F)F)n1 [Compound 68A] | 100 nM | 60 nM
20 nM | 30 nM | 2 nM | 100 nM | NC(=O)/C(=C1\Nc2ccc(C(=O)N3CC[C@@H](N)C3)cc2S1)c1nccc(C(F)(F)F)n1 [Compound 69A] | 90 nM | 20 nM
20 nM | 40 nM | 4 nM | 200 nM | NC(=O)/C(=C1\Nc2ccc(C(=O)NC3CCNCC3)cc2S1)c1nccc(C(F)(F)F)n1 [Compound 71A] | 200 nM | 90 nM
20 nM | 20 nM | 20 nM | 300 nM | NC(=O)/C(=C1\Nc2ccc(C(=O)Nc3ccc(CN4CCOCC4)cc3)cc2N1)c1nccc(C(F)(F)F)n1 [Compound 72A] | 200 nM | 80 nM
30 nM | 30 nM | 100 nM | – | NC(=O)/C(=C1\Nc2ccc(NCCN3CCOCC3)cc2S1)c1nccc(C(F)(F)F)n1 [Compound 124A] | > 20000 nM | 3000 nM
